# In patent EP4692091A1, “CA[…], AND PHARMACEUTICAL COMPOSITION, PREPARATION METHOD THEREFOR AND USE THEREOF” (Changchun Genescience Pharmaceutical Co., Ltd., priority 2023, dated 2024):
# What was measured:
# [1] = Pharmacokinetic test in SD rats; assay type: in vivo; settings: rat, 2 mg/kg, male SD rats, single intravenous injection, 2 mpk, plasma
# Protocol: After a single intravenous injection (dose: 2 mpk) of the compounds 6-2, 11-2, 17-2, and Dxd into male SD rats (blood collection time points: 0.083 h, 0.25 h, 0.5 h, 1 h, 2 h, 4 h, 8 h, and 24 h after IV administration, totaling 8 blood collection time points), average pharmacokinetic parameters in the plasma are as shown in Table 5: Table 5 Pharmacokinetic test result of representative compounds
# SK-BR-3 = test: Inhibition of proliferation of SK-BR-3 cells by compounds (CellTiter-Glo, 72 h); assay type: cell-based; settings: Homo sapiens, SK-BR-3, 72 h, SK-BR-3, 72 h incubation
# How it was run: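 SK-BR-3 cells plated in 384-well format, allowed to adhere, then exposed to compound (0.33% DMSO final) for 72 h at 37 °C, 5% CO2. Viability read by CellTiter-Glo luminescence; IC50 from four-parameter nonlinear fit.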
# CYP1A2 = CYP1A2 (Homo sapiens, UniProt P05177); test: CYP inhibition in human hepatomicrosomes, CYP1A2
# Chain of CYP1A2 (P05177 whole entry): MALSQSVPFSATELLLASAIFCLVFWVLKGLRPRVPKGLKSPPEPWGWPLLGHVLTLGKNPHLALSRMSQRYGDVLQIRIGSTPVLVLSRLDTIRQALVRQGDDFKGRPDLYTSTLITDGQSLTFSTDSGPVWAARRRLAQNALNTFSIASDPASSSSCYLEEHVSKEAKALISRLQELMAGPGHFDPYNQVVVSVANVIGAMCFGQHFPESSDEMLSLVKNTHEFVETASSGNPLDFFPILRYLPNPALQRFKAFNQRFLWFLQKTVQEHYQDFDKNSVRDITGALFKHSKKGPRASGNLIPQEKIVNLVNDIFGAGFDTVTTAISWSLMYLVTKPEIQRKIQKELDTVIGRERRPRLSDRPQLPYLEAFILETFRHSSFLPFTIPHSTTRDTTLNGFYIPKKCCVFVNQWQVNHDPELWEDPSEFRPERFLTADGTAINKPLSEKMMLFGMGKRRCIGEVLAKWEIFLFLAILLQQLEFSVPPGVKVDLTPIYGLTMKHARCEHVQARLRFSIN
smiles,measurement,setting,value
CC[C@@]1(O)C(=O)OCc2c1cc1n(c2=O)Cc2c-1nc1cc(F)c(C)c3c1c2[C@@H](NC(=O)CO)CC3 [Dxd],AUC(0-inf),[1],302 ng·h/mL
same,AUC(0-t),[1],301 ng·h/mL
same,C0,[1],748 ng/mL
same,clearance,[1],113 mL/min/kg
same,half-life,[1],23.4 min
same,Vd,[1]; read-out: Vss,2.7 L/kg
same,IC50,SK-BR-3,11 nM
same,IC50,CYP1A2,> 30000 nM
